Reference: patent US9387219B2, “Edible composition” (Conopco, Inc., priority 2011, dated 2016)
Where “and” joins values, the source holds several entries; their conditions need not be identical. Identical values can stand only once.

Experiments:
[1] = target: T1, Human Lactase Phloridzin Hydrolase (hLPH) (Homo sapiens, UniProt P09848); assay: hLPH enzyme assay (glucoside hydrolysis by LPH extract from Caco-2 cells); format: in vitro ADME; details: for μM substrate hydrolysed/hr / Resistance to hydrolysis-% Q4G: glucoside 1.0 mM, 1 hour at 37° C.; for μM substrate hydrolysed/hr: 10% LPH extract (Caco2 cell-line), pH 6.0; for Resistance to hydrolysis-% Q4G: relative to Q4G, 10% LPH extract
T1 construct: endogenous in cells; host or cells: Caco-2 cells held at confluence for 21 days; trans-membrane protein extract passed through a G-25 Sephadex spin column
Procedure: Extracts were stored at −80° C. in 50 ul aliquots. Prior to use extracts were semi-purified, removing low molecular weight interfering components by passing through a small G-25 Sephadex 50-100 μl spin-column (Roche or ThermoFisher Scientific). 10 μl of semi-purified LPH extract was added to 90 μl of glucoside (1.0 mM final concentration) in 0.1 M maleate (Sigma) buffer, pH 6.0 and incubated for 60 minutes at 37° C. The reaction was terminated by addition of 200 μl 2M Tris (Sigma), pH 8.0. […] This allowed a full recovery of glucose which was measured using the Amplex® Red Glucose/Glucose Oxidase Assay. […] Fluorescence was read on a SpectraMax Gemini EM SN plate reader (Molecular Devices) (excitation. 530 nm and emission at 590 nm).

SGLT1 = target: T2, SGLT1 (Homo sapiens, UniProt P13866); assay: Glucose transport inhibitor cell screening assay, 5 mM D-glucose for 15 minutes (SGLT1 inhibition); format: cell-based; details: for SGLT1 inhibitory activity (in words): Caco-2 cell model; for Class (assigned class of transporter inhibited): assigned from % inhibition at 5 mM and 25 mM D-glucose in Caco-2 cells
T2 construct: endogenous in cells; host or cells: differentiated Caco-2 cell monolayers (ATCC)
T2 sequence (P13866 1-664): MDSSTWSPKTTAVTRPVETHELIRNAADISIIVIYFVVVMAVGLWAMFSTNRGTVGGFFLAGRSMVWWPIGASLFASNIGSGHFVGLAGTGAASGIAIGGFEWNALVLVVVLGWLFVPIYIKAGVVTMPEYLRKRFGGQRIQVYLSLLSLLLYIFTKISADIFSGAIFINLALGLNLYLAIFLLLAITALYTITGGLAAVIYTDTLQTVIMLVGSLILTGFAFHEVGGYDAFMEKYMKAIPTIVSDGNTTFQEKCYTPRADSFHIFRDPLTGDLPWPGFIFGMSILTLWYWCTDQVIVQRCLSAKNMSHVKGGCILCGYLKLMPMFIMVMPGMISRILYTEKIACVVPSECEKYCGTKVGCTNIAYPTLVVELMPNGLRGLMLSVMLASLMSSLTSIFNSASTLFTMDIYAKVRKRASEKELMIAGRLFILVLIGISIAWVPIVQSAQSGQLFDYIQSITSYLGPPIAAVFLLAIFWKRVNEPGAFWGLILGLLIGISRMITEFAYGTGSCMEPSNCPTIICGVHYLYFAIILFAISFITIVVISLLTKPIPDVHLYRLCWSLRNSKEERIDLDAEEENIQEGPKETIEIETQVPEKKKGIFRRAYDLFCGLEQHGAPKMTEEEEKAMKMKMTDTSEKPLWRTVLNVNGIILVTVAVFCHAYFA
Procedure: (§1) Human epithelial colorectal adenocarcinoma (Caco-2) cells were obtained from the American Type Culture Collection (ATCC) and cultured in Growth Medium consisting of Dulbecco's modified Eagle's medium (containing Glutamax-1, 4.5 g/L D-glucose and 25 mM 4-(2-hydroxyethyl)-1-piperazine ethanesulphonic acid (Hepes) (Invitrogen)), 10% foetal bovine serum (Sigma), 1% non-essential amino acids (Invitrogen) and 1 mM sodium pyruvate (Sigma)). The cells were routinely passaged at approximately 80% confluence using TrypLE™ Express Stable Trypsin-Like Enzyme (Invitrogen) to detach the cells, and seeded at approximately 114 cells per mm^2 in fresh tissue culture flasks. Only cells between the passage numbers 45 and 49 were used for experiments.
(§2) Corning® HTS Transwell® 96 well permeable insert supports (Sigma) were collagen coated with 40 μl of 50 μg/ml rat tail collagen type I (BD Biosciences) in 0.02 M acetic acid for one hour at room temperature under sterile conditions. The inserts were washed twice in phosphate buffered saline (PBS (Invitrogen)) and the Caco-2 cells seeded into the inserts at 9.6×10^5 cell/ml (75 μl per insert) in Growth Medium and 30 ml of Growth Medium added to the feeder plate below. The cells were left to attach to the collagen matrix and form monolayers over 48 hours at 37° C., 5% CO2. Both inserts and feeder plate were washed in PBS and the cells incubated with BD Entero-STIM™ Enterocyte Differentiation Medium containing MITO+™ Serum Extender solution (both BD Biosciences), 75 μl per insert and 30 ml in the feeder plate, for a further 48 hours at 37° C., 5% CO2.
(§3) Differentiated cell monolayers were washed gently in Dulbecco's Phosphate Buffered Saline containing CaCl2 and MgCl2 (PBS(+) (Invitrogen)) and the inserts transferred to a new Corning® HTS Transwell®-96 well receiver plate (Sigma). The cells were incubated with fresh PBS(+) (75 μl per insert and 225 μl per well) for 60 minutes at 37° C., 5% CO2. The PBS(+) was gently aspirated and replaced with 75 μl per insert of either 5 mM D-glucose (Sigma)±test active or 25 mM D-glucose±test active in triplicate and 225 μl per well of PBS(+) quickly added to each well. The 5 mM glucose wells and the 25 mM glucose wells were incubated at 37° C., 5% CO2 for 15 minutes and 30 minutes, respectively. Details of all the actives tested are found in table 1. The cell inserts were transferred to a new receiver plate, the supernatant gently aspirated from the cells and replaced with 100 μl of 100 μM of Lucifer Yellow (Sigma) solution to confirm the integrity of the monolayers. 225 μl of PBS(+) was added to each well and incubated at 37° C., 5% CO2 for 1 hour. The cell inserts were then discarded and the permeability of the membranes to Lucifer Yellow checked by measuring the fluorescence of the samples at 485 nm (excitation) and 530 nm (emission) on a Spectramax Gemini EM fluorescence microplate reader.
(§4) The amount of glucose transported across the cell monolayers was measured using a glucose assay based on Invitrogen's Amplex Red Glucose/Glucose oxidase Assay Kit. Briefly, 50 μl of each test sample was transferred to a black sided/clear bottom 96-well plate (Greiner Bio-One) to which 100 μl of reaction buffer (0.5 μl 10 mM Ampliflu Red, 1 μl 10 U/ml Horse Radish peroxidase, 1 μl 100 U/ml glucose oxidase and 97.5 μl PBS (all Sigma)) was added. After 10 minutes incubation at room temperature, the fluorescence of the samples were measured at 530 nm (excitation) and 590 nm (emission) on a Spectramax Gemini EM fluorescence microplate reader and the glucose concentration extrapolated from a standard curve.
(§5) At higher D-glucose concentrations, the SGLT1 transporter becomes saturated and consequently the majority of glucose transport across the monolayer is driven by the low affinity, high capacity GLUT2 transporter that is targeted to the apical membrane only following an initial SGLT1-dependent transport of glucose.

GLUT2 = target: T3, GLUT2 (Homo sapiens, UniProt P11168); assay: Glucose transport inhibitor cell screening assay, 25 mM D-glucose for 30 minutes (GLUT2 inhibition); format: cell-based
T3 construct: endogenous in cells; host or cells: differentiated Caco-2 cell monolayers (ATCC)
T3 sequence (P11168 1-524): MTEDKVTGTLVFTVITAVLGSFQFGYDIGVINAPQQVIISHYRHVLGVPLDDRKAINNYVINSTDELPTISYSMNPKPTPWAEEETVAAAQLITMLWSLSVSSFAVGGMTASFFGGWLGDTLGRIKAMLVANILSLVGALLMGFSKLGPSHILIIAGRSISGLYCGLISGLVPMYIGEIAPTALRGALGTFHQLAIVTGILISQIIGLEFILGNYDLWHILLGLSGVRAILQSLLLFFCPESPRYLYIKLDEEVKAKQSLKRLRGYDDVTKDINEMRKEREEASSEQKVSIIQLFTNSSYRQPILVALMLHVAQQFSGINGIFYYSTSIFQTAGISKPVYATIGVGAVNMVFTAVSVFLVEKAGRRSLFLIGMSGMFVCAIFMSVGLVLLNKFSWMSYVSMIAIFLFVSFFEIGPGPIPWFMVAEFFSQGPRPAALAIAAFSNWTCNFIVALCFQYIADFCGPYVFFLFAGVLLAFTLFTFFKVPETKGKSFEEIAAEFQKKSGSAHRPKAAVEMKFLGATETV
Procedure: as §1, §2, §3, §4, §5

[2] = differentiated Caco-2 monolayer, 5 mM D-glucose, 15 minutes, active at 300 uM
[3] = differentiated Caco-2 monolayer, 30 minutes, active at 150 uM

T1 sequence (P09848 869-1927): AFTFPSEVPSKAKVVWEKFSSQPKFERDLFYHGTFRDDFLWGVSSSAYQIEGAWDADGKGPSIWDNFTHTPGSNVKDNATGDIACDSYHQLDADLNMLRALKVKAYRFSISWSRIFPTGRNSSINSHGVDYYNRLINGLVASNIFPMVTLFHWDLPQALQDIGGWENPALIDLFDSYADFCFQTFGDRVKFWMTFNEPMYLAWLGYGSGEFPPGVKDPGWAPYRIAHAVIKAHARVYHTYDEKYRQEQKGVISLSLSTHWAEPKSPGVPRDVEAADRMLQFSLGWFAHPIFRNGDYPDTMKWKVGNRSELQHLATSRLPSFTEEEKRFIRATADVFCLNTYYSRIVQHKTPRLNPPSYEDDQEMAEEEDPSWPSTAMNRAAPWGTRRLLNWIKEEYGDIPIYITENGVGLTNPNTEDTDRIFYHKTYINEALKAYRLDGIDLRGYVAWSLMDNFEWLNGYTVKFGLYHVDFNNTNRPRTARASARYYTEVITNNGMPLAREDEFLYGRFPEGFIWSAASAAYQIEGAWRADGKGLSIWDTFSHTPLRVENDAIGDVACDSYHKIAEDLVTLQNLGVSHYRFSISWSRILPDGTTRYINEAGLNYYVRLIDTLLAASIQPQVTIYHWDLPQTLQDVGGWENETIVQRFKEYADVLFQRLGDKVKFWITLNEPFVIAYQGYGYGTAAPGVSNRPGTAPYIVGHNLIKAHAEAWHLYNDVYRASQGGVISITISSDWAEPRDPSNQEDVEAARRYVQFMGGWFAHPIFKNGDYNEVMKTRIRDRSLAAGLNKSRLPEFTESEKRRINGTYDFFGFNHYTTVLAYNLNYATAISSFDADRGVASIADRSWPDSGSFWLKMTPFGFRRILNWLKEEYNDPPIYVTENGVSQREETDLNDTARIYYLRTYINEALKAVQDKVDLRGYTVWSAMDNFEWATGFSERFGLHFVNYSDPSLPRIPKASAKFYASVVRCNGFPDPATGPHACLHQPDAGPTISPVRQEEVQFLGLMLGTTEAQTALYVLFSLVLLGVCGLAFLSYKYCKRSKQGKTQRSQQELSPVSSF

Structure (SMILES) | μM substrate hydrolysed/hr [1] | Resistance to hydrolysis-% Q4G [1] [%] | SGLT1 inhibitory activity (in words) (SGLT1; 5 mM D-glucose) | Class (assigned class of transporter inhibited) (SGLT1) | % Glucose Transport inhibition 5 mM (SGLT1; [2]) [%] | % Glucose Transport inhibition 25 mM (GLUT2; [3]) [%] | further results
O=c1cc(-c2ccc(O)c(O)c2)oc2cc(O[C@@H]3O[C@H](CO)[C@@H](O)[C@H](O)[C@H]3O)cc(O)c12 [Luteolin-7-glucoside] | 0.814 μM substrate hydrolysed/hr | 73.72 | inhibition of SGLT1 | SGLT1 | 44.09 | 17.03 | –
O=C1CC(c2ccc(O)cc2)Oc2cc(O[C@@H]3O[C@H](CO)[C@@H](O)[C@H](O)[C@H]3O)cc(O)c21 (some centres unmarked) [Naringenin-7-O-glucoside] | 1.564 μM substrate hydrolysed/hr | – | inhibition of SGLT1 | SGLT1 | – | 0.06 | Resistance to hydrolysis-% Q4G ([1]; listed as N7G): 49.5% and 49.52%
O=C(CCc1ccc(O)cc1)c1c(O)cc(O)cc1O[C@@H]1O[C@H](CO)[C@@H](O)[C@H](O)[C@H]1O [Phloridzin, reference compound] | 0.507 μM substrate hydrolysed/hr | 83.64 | – | – | – | – | –
OC[C@H]1O[C@@H](Oc2cc3c(O)cc(O)cc3[o+]c2-c2ccc(O)cc2)[C@H](O)[C@@H](O)[C@@H]1O [Pelargonidin-3-glucoside] | 1.272 μM substrate hydrolysed/hr | 58.94 | inhibition of SGLT1 | SGLT1 | – | – | –
O=c1c(-c2ccc(O)cc2)coc2cc(O[C@@H]3O[C@H](CO)[C@@H](O)[C@H](O)[C@H]3O)ccc12 [Daidzein-7-glucoside] | – | – | inhibition of SGLT1 | SGLT1 | 35.03 | 7.23 | –
O=c1c(O[C@@H]2O[C@H](CO)[C@@H](O)[C@H](O)[C@H]2O)c(-c2ccc(O)cc2)oc2cc(O)cc(O)c12 [Kaempferol 3-O-glucoside] | 0.224 μM substrate hydrolysed/hr | – | inhibition of SGLT1 | SGLT1 | – | – | Resistance to hydrolysis-% Q4G ([1]; listed as K3G): 92.8% and 92.78%
O=c1c(O)c(-c2ccc(O[C@@H]3O[C@H](CO)[C@@H](O)[C@H](O)[C@H]3O)c(O)c2)oc2cc(O)cc(O)c12 [Quercetin-4-glucoside, reference compound] | – | – | inhibition of SGLT1 | SGLT1 | – | – | degradation by hLPH (in words) ([1]; Caco-2): highest degree of degradation by hLPH
O=c1cc(-c2ccc(O)cc2)oc2c([C@@H]3O[C@H](CO)[C@@H](O)[C@H](O)[C@H]3O)c(O)cc(O)c12 [Apigenin-8-C-glucoside] | 0.685 μM substrate hydrolysed/hr | 77.90 | inhibition of SGLT1 | SGLT1 | 33.84 | 5.76 | –
COc1cc(-c2[o+]c3cc(O)cc(O)c3cc2O[C@@H]2O[C@H](CO)[C@@H](O)[C@H](O)[C@H]2O)cc(OC)c1O [Malvidin-3-O-glucoside] | – | – | inhibition of SGLT1 | SGLT1 | – | 10.91 | –
Oc1cc(O)c2cc(O)c(-c3ccc(O)c(O)c3)[o+]c2c1 [Cyanidin] | – | – | – | – | – | – | inhibition at 300 µM (SGLT1; [2]): 7.93%; inhibition at 150 µM (GLUT2; [3]): 3.21%
O=C(O)/C=C/c1ccc(O)c(O)c1 [caffeic acid] | – | – | no inhibitory activity | – | – | – | GLUT2 inhibitory activity (in words) (GLUT2; Caco-2 cell model): no inhibitory activity
O=c1c(O)c(-c2ccc(O)cc2)oc2cc(O[C@@H]3O[C@H](CO)[C@@H](O)[C@H](O)[C@H]3O)cc(O)c12 [Kaempferol 7-O-glucoside] | 0.618 μM substrate hydrolysed/hr | 80.05 | inhibition of SGLT1 | SGLT1 | 43.89 | 14.42 | –
O=c1c(O[C@@H]2O[C@H](CO)[C@@H](O)[C@H](O)[C@H]2O)c(-c2ccc(O)c(O)c2)oc2cc(O)cc(O)c12 [Quercetin-3-glucoside] | 0.178 μM substrate hydrolysed/hr | – | inhibition of SGLT1 | SGLT1 | – | – | –
